Assay results reported in patent US11278575B2, “Compositions and methods for the treatment of demyelinating conditions” (Duke University, priority 2018, dated 2022).

How the values were obtained:
DUOC-01 cells [1] = test: Stability of day 21 DUOC-01 cells incubated with HC or Dex: viability (AOPI) and total viable cell count; assay type: cell-based, human; conditions: for Averaged total viable cell numbers: DUOC-01 cells in Ringers, HC 3 mg/ml or Dex 25 ng/ml, average of six experiments
Description: FIG. 1 illustrates that HC increases the viability of DUOC-01 cells over time. Viability was measured by AOPI using the Nexcelom Cellometer Auto 2000 (n=6 samples per time point; 2-way ANOVA p<0.001 for treatment factor; Tukey's post-hoc[…]).
(§1) First, to test stability, day +21 DUOC-01 cells were harvested into ringers lactate and incubated with HC for up to 4 hours to determine whether there was any change in viability or stability.
(§2) DUOC-01 cells were cultured using standard procedures from cryopreserved and thawed cord blood units, then harvested on day 21 and re-suspended in Ringers. After initial count and viability, the cell suspension was divided into three conditions: (1) Ringer's solution, (2) 3 mg/ml HC, (3) 25 ng/ml Dex.
(§3) Based on previous stability studies, the cells were incubated for 4 hours at room temperature and characterized every hour for 4 hours. The viability of DUOC-01 cells over time was consistently greater with cells incubated with HC compared to DUOC-01 cells incubated with dexamethasone or Ringer's solution (FIG. 1).

[2] = system: corpus callosum of NSG mice treated with cuprizone; test: Cuprizone demyelination model, myelination score by LFB-PAS staining; assay type: in vivo; conditions: one week after injection into corpus callosum of CPZ-treated mice; 1×10^5 cells; cells incubated 2 hours in 3 mg/ml HC where HC is used
Source text: Myelination score based on LFB-PAS staining of mice one week after treatment of CPZ-treated mice with, Ringer's, Ringers+HC, DUOC-01 cells, or DUOC-01 cells exposed to HC (1×10^5 cell injected). […] Two independent, blinded readers scored coded LFB-PAS stained sections at the mid-line corpus callosum area, between zero and 3. Data are presented as mean ±SEM (ANOVA for cells P<0.001; n=9-16 mice per group, *P<0.05, Tukey's post-hoc test; pooled 2 independent experiments). […] DUOC-01 cells were cultured via standard procedures from frozen cord blood units in the GMP facility and harvested on day 21. After initial count and viability, the cell suspension was split into two conditions at a concentration of 20,000 cells/μl: (1) Ringers, and (2) Ringers +3 mg/ml HC. Based on previous stability studies, the cells were incubated in HC for 2 hours at room temperature prior to injections. To determine if HC would affect the ability of DUOC-01 cells to promote remyelination, Ringer's solution or DUOC-01 cells was injected into the corpus callosum of NSG mice treated with cuprizone, as previously described (Saha et al. JCI Insight 2016). One week following treatment, brains were harvested and analysis of myelination by LFB-PAS staining was conducted.

DUOC-01 cells [3] = test: Surface marker expression of DUOC-01 cells by flow cytometry after adding HC or Dex; assay type: cell-based, human; conditions: up to 4 hours after adding HC (3 mg/ml) or Dex (25 ng/ml)
Description: DUOC-01 cells were collected 4 hours after adding HC or dexamethasone (Dex). The expression of CD45 (FIG. 2A), CD11b (FIG. 2B), Trem2 (FIG. 2C), and CD14 (FIG. 2D) were analyzed by flow cytometry (n=6 per condition).
as §1, §2, §3

Structure (SMILES) | Averaged total viable cell numbers (DUOC-01 cells [1]; 1 hr at room temperature) | Averaged total viable cell numbers (DUOC-01 cells [1]; 2 hr at room temperature) | Averaged total viable cell numbers (DUOC-01 cells [1]; 3 hr at room temperature) | Averaged total viable cell numbers (DUOC-01 cells [1]; 4 hr at room temperature) | Remyelination (myelination score, LFB-PAS, mid-line corpus callosum) [2] | Viability of DUOC-01 cells over time (AOPI) (DUOC-01 cells [1]; up to 4 hours, 3 mg/ml HC, compared with dexamethasone or Ringer's solution) | Expression level of DUOC-01 surface markers (CD45, CD14, TREM2, CD11b) (DUOC-01 cells [3])
C[C@@H]1C[C@H]2[C@@H]3CCC4=CC(=O)C=C[C@]4(C)[C@@]3(F)[C@@H](O)C[C@]2(C)[C@@]1(O)C(=O)CO [Dexamethazone, dexamethasone] | 923,563 | 813,750 | 821,250 | 706,875 | – | – | –
C[C@]12CCC(=O)C=C1CC[C@@H]1[C@@H]2[C@@H](O)C[C@@]2(C)[C@H]1CC[C@]2(O)C(=O)CO [HC, hydrocortisone] | 959,688 | 821,667 | 910,604 | 742,000 | did not inhibit the ability of DUOC-01 cells to promote remyelination | improved the viability | did not change the expression level
